Experimental data from paper PMC9161374 (Science Translational Medicine, 2022).
Several values for one entry are separate records, joined by “and”; a condition that tells them apart may be missing. Identical values can stand only once.

What was measured:
[1] = test system: SARS-CoV-2 (B.1); assay: Anti-SARS-CoV-2 activity in Vero E6 cells (viral yield by qRT-PCR); type: cell-based
[2] = test system: SARS-CoV-2 (Beta, B.1.351); assay: microbe, parasite or virus in culture; type: cell-based; settings: for % Inhibition: beta
[3] = test system: SARS-CoV-2 (B.1) in Huh7 cells; assay: Anti-SARS-CoV-2 activity in Huh7 cells (viral yield by qRT-PCR); type: cell-based; settings: B.1, MOI 0.05, 48 h
[4] = test system: SARS-CoV-2 (Delta, B.1.617.2); assay: microbe, parasite or virus in culture; type: cell-based; settings: for % Inhibition: delta
[5] = test system: SARS-CoV-2 replicon system (pBAC-SARS-CoV-2-Replicon-Luc); assay: microbe, parasite or virus in culture; type: cell-based; settings: Severe acute respiratory syndrome coronavirus 2, HEK-293T, 60 h
[6] = test system: Vero E6 cells; assay: CCK-8 cell viability assay; type: cell-based, African green monkey; settings: individual replicate values, Fig.S4
Outline: (§1)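 Vero E6 cells, 20,000/well, exposed to compound at 0–200 μM (0, 0.01, 0.1, 1, 5, 10, 50, 75, 100, 200 μM) for 48 h; viability read by CCK-8 and expressed as percentage versus drug concentration, mean ± SD.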

[7] = CCK-8 cell viability assay; type: cell-based, African green monkey; settings: African green monkey; Vero E6 cells, 48 h, CCK8
Outline: as §1

SMILES: CCC(CC)C(=O)OC[C@H]1O[C@@](C#N)(c2ccc3c(N)ncnn23)[C@H](O)[C@@H]1O [ATV011]
- % Inhibition ([1]; 0.1 μM, replicates, sheet Fig.S3): 0%
- % Inhibition ([1]; 0.5 μM, replicates, sheet Fig.S3): 0%
- % Inhibition ([1]; 1 μM, replicates, sheet Fig.S3): 78.517%
- % Inhibition ([1]; 2 μM, replicates, sheet Fig.S3): 79.6525%
- % Inhibition ([1]; 5 μM, replicates, sheet Fig.S3): 91.2053%
- % Inhibition ([1]; 10 μM, replicates, sheet Fig.S3): 90.9393%
- % Inhibition ([1]; B.1, 0.01 uM, Vero E6, replicates): 0%
- % Inhibition ([1]; B.1, 0.1 uM, Vero E6, replicates): 0%
- % Inhibition ([1]; B.1, 0.25 uM, Vero E6, replicates): 0%
- % Inhibition ([1]; B.1, 0.5 uM, Vero E6, replicates): 0%
- % Inhibition ([1]; B.1, 1 uM, Vero E6, replicates): 0%
- % Inhibition ([1]; B.1, 2 uM, Vero E6, replicates, 2 µM): 3.841% and 72.4491%
- % Inhibition ([1]; B.1, 5 uM, Vero E6, replicates, 5 µM): 99.7181%
- % Inhibition ([1]; B.1, 10 uM, Vero E6, replicates, 10 µM): 99.9819%
- % Inhibition ([1]; B.1, 50 uM, Vero E6, replicates, 50 µM): 99.9874%
- inhibition at 0.1 µM ([1]; Severe acute respiratory syndrome coronavirus 2, Vero C1008, 0.1 μM, replicates, sheet Fig.S3): 0%
- inhibition at 0.5 µM ([1]; Severe acute respiratory syndrome coronavirus 2, Vero C1008, 0.5 μM, replicates, sheet Fig.S3): 0%
- inhibition at 1 µM ([1]; Severe acute respiratory syndrome coronavirus 2, Vero C1008, 1 μM, replicates, sheet Fig.S3): 77.4%
- inhibition at 2 µM ([1]; Severe acute respiratory syndrome coronavirus 2, Vero C1008, 2 μM, replicates, sheet Fig.S3): 78%
- inhibition at 5 µM ([1]; Severe acute respiratory syndrome coronavirus 2, Vero C1008, 5 μM, replicates, sheet Fig.S3): 93.5%
- inhibition at 10 µM ([1]; Severe acute respiratory syndrome coronavirus 2, Vero C1008, 10 μM, replicates, sheet Fig.S3): 93.2%
- inhibition at 0.01 µM ([1]; Severe acute respiratory syndrome coronavirus 2, Vero C1008, B.1, 0.01 uM, Vero E6, replicates): 0%
- inhibition at 0.1 µM ([1]; Severe acute respiratory syndrome coronavirus 2, Vero C1008, B.1, 0.1 uM, Vero E6, replicates): 0%
- inhibition at 0.25 µM ([1]; Severe acute respiratory syndrome coronavirus 2, Vero C1008, B.1, 0.25 uM, Vero E6, replicates): 0%
- inhibition at 0.5 µM ([1]; Severe acute respiratory syndrome coronavirus 2, Vero C1008, B.1, 0.5 uM, Vero E6, replicates): 0%
- inhibition at 1 µM ([1]; Severe acute respiratory syndrome coronavirus 2, Vero C1008, B.1, 1 uM, Vero E6, replicates): 0%
- inhibition at 5 µM ([1]; Severe acute respiratory syndrome coronavirus 2, Vero C1008, B.1, 5 uM, Vero E6, replicates): 99.5%
- inhibition at 10 µM ([1]; Severe acute respiratory syndrome coronavirus 2, Vero C1008, B.1, 10 uM, Vero E6, replicates): 99.9%
- inhibition at 50 µM ([1]; Severe acute respiratory syndrome coronavirus 2, Vero C1008, B.1, 50 uM, Vero E6, replicates): 99.9%
- EC90 ([1]; Severe acute respiratory syndrome coronavirus 2, Vero C1008, read-out: EC90 (Confidence 95%)): 2640 nM
- EC50 ([1]; Severe acute respiratory syndrome coronavirus 2, Vero C1008, MOI 0.05, 48 h): 2120 nM
- EC50 ([2]; Severe acute respiratory syndrome coronavirus 2, Vero C1008, 48 h, read-out: EC50 in Vero E6 cells, SARS-CoV-2 (Beta, B.1.351)): 2300 nM
- inhibition at 0.01 µM ([2]; Severe acute respiratory syndrome coronavirus 2, Vero C1008, beta, 0.01 uM, Vero E6, replicates): 0%
- inhibition at 0.1 µM ([2]; Severe acute respiratory syndrome coronavirus 2, Vero C1008, beta, 0.1 uM, Vero E6, replicates): 0%
- inhibition at 0.25 µM ([2]; Severe acute respiratory syndrome coronavirus 2, Vero C1008, beta, 0.25 uM, Vero E6, replicates): 0%
- inhibition at 0.5 µM ([2]; Severe acute respiratory syndrome coronavirus 2, Vero C1008, beta, 0.5 uM, Vero E6, replicates): 0%
- inhibition at 1 µM ([2]; Severe acute respiratory syndrome coronavirus 2, Vero C1008, beta, 1 uM, Vero E6, replicates): 0%
- inhibition at 2 µM ([2]; Severe acute respiratory syndrome coronavirus 2, Vero C1008, beta, 2 uM, Vero E6, replicates): 29.7%
- inhibition at 5 µM ([2]; Severe acute respiratory syndrome coronavirus 2, Vero C1008, beta, 5 uM, Vero E6, replicates): 99.6%
- inhibition at 10 µM ([2]; Severe acute respiratory syndrome coronavirus 2, Vero C1008, beta, 10 uM, Vero E6, replicates): 99.9%
- inhibition at 50 µM ([2]; Severe acute respiratory syndrome coronavirus 2, Vero C1008, beta, 50 uM, Vero E6, replicates): 99.9%
- EC90 ([2]; Severe acute respiratory syndrome coronavirus 2, Vero C1008, read-out: EC90 (Confidence 95%), Vero-E6, Beta B.1.351): 2950 nM
- % Inhibition ([2]; 0.01 uM, Vero E6, replicates): 0%
- % Inhibition ([2]; 0.1 uM, Vero E6, replicates): 0%
- % Inhibition ([2]; 0.25 uM, Vero E6, replicates): 0%
- % Inhibition ([2]; 0.5 uM, Vero E6, replicates): 0%
- % Inhibition ([2]; 1 uM, Vero E6, replicates): 0%
- % Inhibition ([2]; 2 uM, Vero E6, replicates): 22.548%
- % Inhibition ([2]; 5 uM, Vero E6, replicates): 99.5042%
- % Inhibition ([2]; 10 uM, Vero E6, replicates): 99.9468%
- % Inhibition ([2]; 50 uM, Vero E6, replicates): 99.9524%
- EC50 ([3]; Severe acute respiratory syndrome coronavirus 2, Huh-7, read-out: EC50 (Confidence 95%) in Huh7 cells): 836 nM
- EC90 ([3]; Severe acute respiratory syndrome coronavirus 2, Huh-7, read-out: EC90 (Confidence 95%) in Huh7 cells): 1010 nM
- EC50 ([4]; Severe acute respiratory syndrome coronavirus 2, Vero C1008, 48 h, read-out: EC50 in Vero E6 cells, SARS-CoV-2 (Delta, B.1.617.2)): 408 nM
- inhibition at 0.01 µM ([4]; Severe acute respiratory syndrome coronavirus 2, Vero C1008, delta, 0.01 uM, Vero E6, replicates): 0%
- inhibition at 0.1 µM ([4]; Severe acute respiratory syndrome coronavirus 2, Vero C1008, delta, 0.1 uM, Vero E6, replicates): 0%
- inhibition at 0.25 µM ([4]; Severe acute respiratory syndrome coronavirus 2, Vero C1008, delta, 0.25 uM, Vero E6, replicates): 18.8%
- inhibition at 0.5 µM ([4]; Severe acute respiratory syndrome coronavirus 2, Vero C1008, delta, 0.5 uM, Vero E6, replicates): 74.2%
- inhibition at 1 µM ([4]; Severe acute respiratory syndrome coronavirus 2, Vero C1008, delta, 1 uM, Vero E6, replicates): 83.5%
- inhibition at 2 µM ([4]; Severe acute respiratory syndrome coronavirus 2, Vero C1008, delta, 2 uM, Vero E6, replicates): 94.4%
- inhibition at 5 µM ([4]; Severe acute respiratory syndrome coronavirus 2, Vero C1008, delta, 5 uM, Vero E6, replicates): 94.6%
- inhibition at 10 µM ([4]; Severe acute respiratory syndrome coronavirus 2, Vero C1008, delta, 10 uM, Vero E6, replicates): 99.9%
- inhibition at 50 µM ([4]; Severe acute respiratory syndrome coronavirus 2, Vero C1008, delta, 50 uM, Vero E6, replicates): 100%
- EC90 ([4]; Severe acute respiratory syndrome coronavirus 2, Vero C1008, read-out: EC90 (Confidence 95%), Vero-E6, Delta B.1.617.2): 842 nM
- % Inhibition ([4]; 0.01 uM, Vero E6, replicates): 0%
- % Inhibition ([4]; 0.1 uM, Vero E6, replicates): 0%
- % Inhibition ([4]; 0.25 uM, Vero E6, replicates): 20.35%
- % Inhibition ([4]; 0.5 uM, Vero E6, replicates): 62.851%
- % Inhibition ([4]; 1 uM, Vero E6, replicates): 82.2323%
- % Inhibition ([4]; 2 uM, Vero E6, replicates): 91.97%
- % Inhibition ([4]; 5 uM, Vero E6, replicates): 91.6601%
- % Inhibition ([4]; 10 uM, Vero E6, replicates): 99.4778%
- % Inhibition ([4]; 50 uM, Vero E6, replicates): 99.7579%
- EC50 ([5]; read-out: EC50 (Confidence 95%), replicon): 320 nM
- EC90 ([5]; read-out: EC90 (Confidence 95%), replicon): 384 nM
- cell viability (% of control) ([6]; 0.01 μM compound, 0.01 µM): 118.751 % of control and 91.986 % of control and 93.878 % of control
- cell viability (% of control) ([6]; 0.1 μM compound, 0.1 µM): 121.196 % of control and 124.104 % of control and 115.797 % of control
- cell viability (% of control) ([6]; 1 μM compound, 1 µM): 117.043 % of control and 115.382 % of control and 124.473 % of control
- cell viability (% of control) ([6]; 2 μM compound, 2 µM): 120.919 % of control and 113.536 % of control and 114.367 % of control
- cell viability (% of control) ([6]; 5 μM compound, 5 µM): 138.178 % of control and 143.9 % of control and 139.562 % of control
- cell viability (% of control) ([6]; 10 μM compound, 10 µM): 141.085 % of control and 129.595 % of control and 122.535 % of control
- cell viability (% of control) ([6]; 50 μM compound, 50 µM): 76.4283 % of control and 65.5331 % of control and 77.184 % of control
- CC50 at 48 h [7]: > 50000 nM
